Values after ≈ are worked out from the molar mass of the structure shown.
Assays:
[1] = Apparent solubility of compound in fed state simulated intestinal fluid at pH 5 by spectrophotometric analysis; format: physicochemical
[2] = Kinetic solubility of compound in HDM-PAMPA with buffer containing 5% DMSO at pH 1.2 incubated for 5 hrs by spectrophotometric analysis; format: ADME; details: for Kinetic_solubility: pampa, pH 1.2, 5 h; for solubility kinetic at 5 h: HDM-PAMPA buffer, pH 1.2, read-out: Kinetic_solubility
[3] = Thermodynamic solubility of compound in buffer containing HCl/KCl with 1% v/v DMSO at pH 1.2 incubated for 24 hrs by spectrophotometric analysis; format: physicochemical; details: for Therm_solubility: buffer, pH 1.2, 24 h; for solubility thermodynamic at 24 h: HCl/KCl buffer, pH 1.2, read-out: Therm_solubility
[4] = Ratio of compound kinetic solubility to clofibric acid kinetic solubility in HDM-PAMPA with buffer containing 5% DMSO at pH 7.4 incubated for 5 hrs by spectrophotometric analysis
[5] = Kinetic solubility of compound in HDM-PAMPA with buffer containing 5% DMSO at pH 7.4 incubated for 5 hrs by spectrophotometric analysis; format: ADME; details: read-out: Kinetic_solubility
[6] = Ratio of compound kinetic solubility to clofibric acid kinetic solubility in HDM-PAMPA with buffer containing 5% DMSO at pH 6.8 incubated for 5 hrs by spectrophotometric analysis
[7] = Apparent solubility of compound in fasted state simulated intestinal fluid at pH 6.5 by spectrophotometric analysis; format: physicochemical
[8] = Kinetic solubility of compound in HDM-PAMPA with buffer containing 5% DMSO at pH 6.8 incubated for 5 hrs by spectrophotometric analysis; format: ADME; details: for solubility kinetic at 5 h: HDM-PAMPA buffer, pH 6.8, read-out: Kinetic_solubility
[9] = Ratio of compound kinetic solubility to gemfibrozil kinetic solubility in HDM-PAMPA with buffer containing 5% DMSO at pH 7.4 incubated for 5 hrs by spectrophotometric analysis
[10] = Thermodynamic solubility of compound in buffer containing KH2PO4/Na2HPO4 with 1% v/v DMSO at pH 6.8 incubated for 24 hrs by spectrophotometric analysis; format: physicochemical; details: for solubility thermodynamic at 24 h: KH2PO4/Na2HPO4 buffer, pH 6.8, read-out: Therm_solubility; for Therm_solubility: buffer, pH 6.8, 24 h
[11] = Ratio of compound kinetic solubility to gemfibrozil kinetic solubility in HDM-PAMPA with buffer containing 5% DMSO at pH 6.8 incubated for 5 hrs by spectrophotometric analysis
[12] = Octanol/water partition coefficient, logP of compound by RP-UHPLC analysis; format: physicochemical
[13] = Thermodynamic solubility of compound in buffer containing KH2PO4/Na2HPO4 with 1% v/v DMSO at pH 7.4 incubated for 24 hrs by spectrophotometric analysis; format: physicochemical; details: for solubility thermodynamic at 24 h: KH2PO4/Na2HPO4 buffer, pH 7.4, read-out: Therm_solubility
[14] = Solubility of the compound in water; format: physicochemical

solubility [1] | Kinetic_solubility [2] | Therm_solubility [3] | solubility kinetic at 5 h [5] | solubility [7] | solubility kinetic at 5 h [8] | solubility thermodynamic at 24 h [10] | logP [12] | solubility thermodynamic at 24 h [13] | solubility kinetic at 5 h [2] | solubility thermodynamic at 24 h [3] | Therm_solubility [10] | Therm_solubility ([13]; buffer, pH 7.4, 24 h) | Kinetic_solubility ([8]; pampa, pH 6.8, 5 h) | SMILES | Ratio [4] | Ratio [6] | Ratio [9] | Ratio [11] | solubility [14]
> 100 µg/mL | Insoluble(Bld) | Insoluble(Bld) | 296 µg/mL (≈ 733 µM) | 63.5 µg/mL (≈ 157 µM) | 300 µg/mL (≈ 741 µM) | 13.9 µg/mL (≈ 34.5 µM) | 6.63 | 25.5 µg/mL (≈ 62.9 µM) |  |  |  |  |  | CC(C)(Oc1ccc(CCOc2ccc(/N=N/c3ccccc3)cc2)cc1)C(=O)O | 2 to 3 | 2 to 3 | 2 to 3 | 2 to 3 | 
13.8 µg/mL (≈ 33.3 µM) |  | Insoluble(Bld) | 43 µg/mL (≈ 103 µM) | 24.8 µg/mL (≈ 59.6 µM) | 44.2 µg/mL (≈ 106 µM) | 27.9 µg/mL (≈ 66.9 µM) | 7.44 | 26.9 µg/mL (≈ 64.7 µM) | 0.89 µg/mL (≈ 2.14 µM) |  |  |  |  | CC(C)(Oc1ccc(CCCOc2ccc(/C=C/c3ccccc3)cc2)cc1)C(=O)O |  |  |  |  | 
7.39 µg/mL (≈ 22.8 µM) | Insoluble(Bld) | Insoluble(Bld) | 13 µg/mL (≈ 40.1 µM) | 8.7 µg/mL (≈ 26.8 µM) | 13.6 µg/mL (≈ 41.9 µM) |  | 6.95 |  |  |  | Insoluble(Bld) | Insoluble(Bld) |  | CC(C)(CCCOc1ccc(/C=C/c2ccccc2)cc1)C(=O)O |  |  |  |  | 
17.8 µg/mL (≈ 39.9 µM) | Insoluble(Bld) | Insoluble(Bld) | 67.6 µg/mL (≈ 152 µM) | 19.6 µg/mL (≈ 44.2 µM) | 68.4 µg/mL (≈ 154 µM) | 16 µg/mL (≈ 35.9 µM) | 6.55 | 17.5 µg/mL (≈ 39.3 µM) |  |  |  |  |  | CC(C)(Oc1ccc(CCCOc2ccc(C(=O)/C=C/c3ccccc3)cc2)cc1)C(=O)O |  |  |  |  | 

The remaining lines, values behind:

SMILES | solubility [1] | Kinetic_solubility [2] | Therm_solubility [3] | solubility kinetic at 5 h [5] | solubility [7] | solubility kinetic at 5 h [8] | solubility thermodynamic at 24 h [10] | logP [12] | solubility thermodynamic at 24 h [13] | solubility kinetic at 5 h [2] | solubility thermodynamic at 24 h [3] | Therm_solubility [10] | Therm_solubility ([13]; buffer, pH 7.4, 24 h) | Kinetic_solubility ([8]; pampa, pH 6.8, 5 h) | Ratio [4] | Ratio [6] | Ratio [9] | Ratio [11] | solubility [14]
CCN(C)C(=O)Oc1cccc([C@H](C)N(C)C)c1 [RIVASTIGMINE] |  |  |  |  |  |  |  |  |  |  |  |  |  |  |  |  |  |  | 2040 µg/mL (≈ 8150 µM)
Cc1ccc(C)c(OCCCC(C)(C)C(=O)O)c1 [GEMFIBROZIL] | > 25 µg/mL |  |  | > 120 µg/mL | > 25 µg/mL | > 120 µg/mL | > 25 µg/mL | 4.9 | > 25 µg/mL | 33.2 µg/mL (≈ 133 µM) | 15.5 µg/mL (≈ 61.8 µM) |  |  |  |  |  |  |  | 
CC(C)(Oc1ccc(Cl)cc1)C(=O)O [CLOFIBRIC ACID] | > 50 µg/mL |  |  | > 100 µg/mL | > 50 µg/mL | > 100 µg/mL | > 50 µg/mL | 2.96 | > 50 µg/mL | > 100 µg/mL | > 50 µg/mL |  |  |  |  |  |  |  | 
COc1ccc(/C=C/c2ccc(OCCCC(C)(C)C(=O)O)cc2)cc1 | 6.23 µg/mL (≈ 17.6 µM) | Insoluble(Bld) | Insoluble(Bld) | 7.32 µg/mL (≈ 20.7 µM) | 7.13 µg/mL (≈ 20.1 µM) |  |  | 6.08 | 1.65 µg/mL (≈ 4.66 µM) |  |  | Insoluble(Bld) |  | Insoluble(Bld) |  |  |  |  | 
